Source: patent publication US6376505B1, “5-HT1A and 5-HT1Dαdalpha antagonists” (Eli Lilly and Company, priority 1997, dated 2002)
Structures can show the parent of a compound that is named as a salt.

| melting point [°C] | SMILES |
| --- | --- |
| 180 | CSc1ccccc1OC[C@@H](O)CN1CCC2(CC1)OCc1c2ccc2c1OCCO2 (as salt: oxalate) |
| 198 to 200 | O[C@H](COc1ccccc1C1CCCC1)CN1CCC2(CC1)OCc1c2ccc2c1OCCO2 (as salt: oxalate) |
| 169 to 171 | O[C@H](COc1ccccc1C1CCCC1)CN1CCC2(CC1)OCc1c2ccc2c1OCCCO2 (as salt: oxalate) |
